According to patent US20200261534A1, “NEW TREATMENTS OF MULTIPLE MYELOMA” (priority 2017, published 2020):
Read-outs that look alike come from different tables or passages of the source. Starred links: 1 amine or outer side, 2 acyl side, 3 side chain; linkers in the order of their positions; H or OH if unused. Positions of bridges follow the written chain, without caps; N, C: chain ends. Non-standard residues stand in square brackets, D forms with d. Residues, ends and D or L forms follow the SMILES beside them. No end group written: not given here. ξ: configuration not given here. Biphenyl(4,4'-CH2)2 = c1cc(-c2ccc(C[*:2])cc2)ccc1C[*:1]; ξαMeNle(6-ylidene) = CC(CCCC=[*:3])(N[*:1])C(=O)[*:2]; X1 = CC(CCCCCCC=[*:3])(N[*:1])C(=O)[*:2]

How the values were obtained:
Format in all cases: cell-based
[1] = test system: HL-60, promyeloblast (acute myelocytic leukemia, AML); test: MTT viability assay, HL-60
Description: (§1) HL-60, promyeloblast (acute myelocytic leukemia, AML), ECACC: 98070106 […] During the amplification step and the assays adherent cells were rinsed with DPBS (Dulbecco's Phosphate Buffered Saline, Sigma D1283) three times and afterward treated for 5 minutes with trypsin ([…]) (Gibco-BRL, 15400054) in solution of DPBS at 37° C., and, once detached, transferred in the culturing medium. No-adherent cells were centrifuged and transferred in the culturing medium. Cells were counted in a Neubauer chamber after labelling with Tripan-Blue. […] Cells were seeded at a density of 10000 cells/well in 100 μl of medium in 96 well plates. […] Controls are the untreated cells. Each experiment was performed in triplicate. Cells were incubated with the compounds at the indicated concentrations during 24-72 h in incubator under CO2 atmosphere at 37° C. […] Stock solution of MTT (475989 Calbiochem) was 5 mg/ml in PBS. 1×.10 μl/well of MTT solution were added and the plate was incubated for 3-4 hr. […] Plates were incubated for 16 h at room temperature under orbital shaking. Absorbance at 570 nm was finally measured. […] The dose/response curve was fitted through the sigmoidal equation dose-response (variable slope) and the IC50 values were calculated as follow: Y=Bottom+(Top−Bottom)/(1+10^{[(LogIC50−X)*HillSlope]},

[2] = test system: MCF-7, epithelial (breast cancer)
Description: as §1, with “MCF-7, epithelial (breast cancer),” for “HL-60, promyeloblast (acute myelocytic leukemia, AML),”, “86012803” for “98070106”

[3] = test system: RPMI-8266, lymphoblast (myeloma); test: MTT viability assay, RPMI-8266
Description: RPMI-8266, lymphoblast (myeloma), ATCC® CCL155™
All cell lines were cultured in incubator at 37° C. in RPMI-1640 (Sigma R8758) medium with 10% of fetal bovine serum inactivated (FBS) and 2 mM glutamine (Sigma G7513). During the amplification step cells were centrifuged and transferred into the culturing medium. Cells were counted in a Neubauer chamber after labelling with Tripan-Blue.
(§2) Cells were seeded at a density of 10000 cells/well in 100 μl of medium in 96 well plates. After 24 h, the compounds to be tested were added to calculate the dose/response curve at the starting concentration of 100 μM with serial dilutions (1:1). Controls are the untreated cells. Each experiment was performed in triplicate.
(§3) Cells were incubated with the peptidomimetic compound (S09) at the indicated concentrations during 24-72 h in incubator under CO2 atmosphere at 37° C. Then, cell viability was measured by means of MTT (3-(4,5-dimethylthiazol-2-yl)-2,5-diphenyltetrazolium bromide) assay. Stock solution of MTT (475989 Calbiochem) was 5 mg/ml in PBS. 1×.10 μl/well of MTT solution were added and the plate was incubated for 3-4 hr. The medium was discarded and 100 μl of extracting buffer (PBS 1×, 15% SDS, 50% […] N,N-Dimethylformamide, pH 4.7) were added to each well. Plates were incubated for 16 h at room temperature under orbital shaking. Absorbance at 570 nm was finally measured. As negative control (experiment noise) 3 wells were treated with 20 μl/well of a solution of SDS 10% in H2O.
Data analysis was performed calculating the percentage of cell viability normalized vs. the values of negative control, which was considered equal to 100%. The dose/response curve was fitted through the sigmoidal equation dose-response (variable slope) and the IC50 values were calculated as follow:
Y=Bottom+(Top−Bottom)/(1+10^{[(LogIC50−X)*HillSlope]},
All cell lines were cultured in incubator at 37° C. in RPMI-1640 (Sigma R8758) medium with 10% of fetal bovine serum inactivated (FBS) and 2 mM glutamine (Sigma G7513).
as §2, with “of 10,000” for “of 10000”, “of 40” for “of 100”
as §3, with “compounds” for “compound (S09)”

[4] = HL-60, same protocol as Example 2, Table 6, read-out: Compound (IC50)
[5] = MCF7, same protocol as Example 2, Table 6, read-out: Compound (IC50)

Molecule | IC50 [1] | IC50 [2] | IC50 [1, 4] | IC50 [2, 5] | other results
CCc1ccc(/C=C2/SC(=S)NC2=O)cc1 [10058-F4, reference compound] |  |  |  |  | IC50 ([1]; HL-60, MTT, incubation 24-72 h, Table 3, read-out: IC50 values): 54 ± 2 µM; IC50 ([2]; MCF7, MTT, incubation 24-72 h, Table 3, read-out: IC50 values): ~52 µM
CC[C@H](C)[C@H](NC(=O)[C@H](Cc1ccc(O)cc1)NC(=O)[C@H](C)NC(=O)[C@@H]1CSCc2ccc(cc2)-c2ccc(cc2)CSC[C@H](NC(=O)[C@H](CCCCN)NC(=O)[C@@H]2CCCN2C(=O)[C@H](C)N)C(=O)N[C@@H](C(C)C)C(=O)N[C@@H]([C@@H](C)CC)C(=O)N[C@@H](CC(C)C)C(=O)N[C@@H](CCCCN)C(=O)N[C@@H](CCCCN)C(=O)N[C@@H](C)C(=O)N1)C(=O)N[C@@H](CC(C)C)C(=O)N[C@@H](CO)C(=O)O [IDP-P1708161] (H-APKCVILKKACAYILS-OH; linker 4-11 via Biphenyl(4,4'-CH2)2; N-terminus and C-terminus assumed) |  |  |  |  | IC50 ([3]; 24 h): 5 µM; IC50 ([3]; 72 h): 7.5 µM
CC[C@H](C)[C@H](NC(=O)[C@H](Cc1ccc(O)cc1)NC(=O)[C@H](C)NC(=O)[C@@H](NC(=O)[C@H](C)NC(=O)C1(C)CCCC=CCCCCCCC(C)(NC(=O)[C@H](C)N)C(=O)N[C@@H](CCCCN)C(=O)N[C@@H](C(C)C)C(=O)N[C@@H](C(C)C)C(=O)N[C@@H]([C@@H](C)CC)C(=O)N[C@@H](CC(C)C)C(=O)N[C@@H](CCCCN)C(=O)N1)[C@@H](C)O)C(=O)N[C@@H](CC(C)C)C(=O)N[C@@H](CO)C(=O)O (stereo partly drawn) [IDP-S19, AXKVVILKXATAYILS] (H-A[X1]KVVILK[ξαMeNle(6-ylidene)]ATAYILS-OH; staple 2-9) |  |  | > 100 µM | > 100 µM | 
CC[C@H](C)[C@H](NC(=O)[C@H](Cc1ccc(O)cc1)NC(=O)C1(C)CCCC=CCCCCCCC(C)(NC(=O)[C@@H](NC(=O)[C@H](CCCCN)NC(=O)[C@@H]2CCCN2C(=O)[C@H](C)N)C(C)C)C(=O)N[C@@H]([C@@H](C)CC)C(=O)N[C@@H](CC(C)C)C(=O)N[C@@H](CCCCN)C(=O)N[C@@H](CCCCN)C(=O)N[C@@H](C)C(=O)N[C@@H]([C@@H](C)O)C(=O)N1)C(=O)N[C@@H](CC(C)C)C(=O)N[C@@H](CO)C(=O)O (stereo partly drawn) [IDP-S21, APKVXILKKATXYILS] (H-APKV[X1]ILKKAT[ξαMeNle(6-ylidene)]YILS-OH; staple 5-12) |  |  | > 100 µM | > 100 µM | 
CC[C@H](C)[C@@H]1NC(=O)[C@H](Cc2ccc(O)cc2)NC(=O)[C@H](C)NC(=O)[C@H]([C@@H](C)O)NC(=O)[C@H](C)NC(=O)C(C)(NC(=O)[C@H](CCCCN)NC(=O)[C@H](CC(C)C)NC(=O)[C@@H](NC(=O)[C@@H](NC(=O)[C@@H](NC(=O)[C@H](CCCCN)NC(=O)[C@@H]2CCCN2C(=O)[C@H](C)N)C(C)C)C(C)C)[C@@H](C)CC)CCCCCCC=CCCCC(C)(C(=O)N[C@H](C(=O)O)C(C)C)NC(=O)[C@H](CC(C)C)NC1=O (stereo partly drawn) [IDP-S23, APKVVILKXATAYILXV] (H-APKVVILK[X1]ATAYIL[ξαMeNle(6-ylidene)]V-OH; staple 9-16) |  |  | > 100 µM | > 100 µM | 

More lines, main results first:

IC50 [1] | IC50 [2] | Molecule | IC50 [1, 4] | IC50 [2, 5] | other results
> 100 µM | > 100 µM | CC[C@H](C)[C@H](NC(=O)[C@@H](NC(=O)[C@@H](NC(=O)[C@H](CCCCN)NC(=O)[C@@H]1CCCN1C(=O)[C@H](C)N)C(C)C)C(C)C)C(=O)NC1(C)CCCCCCC=CCCCC(C)(C(=O)N[C@@H](CC(C)C)C(=O)N[C@@H](CO)C(=O)O)NC(=O)[C@H](Cc2ccc(O)cc2)NC(=O)[C@H](C)NC(=O)[C@H]([C@@H](C)O)NC(=O)[C@H](C)NC(=O)[C@H](CCCCN)NC(=O)[C@H](CCCCN)NC1=O (stereo partly drawn) [IDP-S17, APKVVIXKKATAYXLS] (H-APKVVI[X1]KKATAY[ξαMeNle(6-ylidene)]LS-OH; staple 7-14; N-terminus and C-terminus assumed) |  |  | 
> 100 µM | > 100 µM | CC[C@H](C)[C@@H]1NC(=O)[C@H](Cc2ccc(O)cc2)NC(=O)[C@H](C)NC(=O)[C@H]([C@@H](C)O)NC(=O)[C@H](C)NC(=O)[C@H](CCCCN)NC(=O)C(C)(NC(=O)[C@H](CC(C)C)NC(=O)[C@@H](NC(=O)[C@@H](NC(=O)[C@@H](NC(=O)[C@H](CCCCN)NC(=O)[C@@H]2CCCN2C(=O)[C@H](C)N)C(C)C)C(C)C)[C@@H](C)CC)CCCCCCC=CCCCC(C)(C(=O)N[C@@H](CO)C(=O)O)NC1=O (stereo partly drawn) [IDP-S18, APKVVILXKATAYIXS] (H-APKVVIL[X1]KATAYI[ξαMeNle(6-ylidene)]S-OH; staple 8-15; N-terminus and C-terminus assumed) |  |  | 
> 100 µM | > 100 µM | CC[C@H](C)[C@H](NC(=O)C1(C)CCCC=CCCCCCCC(C)(NC(=O)[C@@H](NC(=O)[C@@H](NC(=O)[C@H](CCCCN)NC(=O)[C@@H]2CCCN2C(=O)[C@H](C)N)C(C)C)C(C)C)C(=O)N[C@@H](CC(C)C)C(=O)N[C@@H](CCCCN)C(=O)N[C@@H](CCCCN)C(=O)N[C@@H](C)C(=O)N[C@@H]([C@@H](C)O)C(=O)N[C@@H](C)C(=O)N1)C(=O)N[C@@H](CC(C)C)C(=O)N[C@@H](CO)C(=O)O (stereo partly drawn) [IDP-S22, APKVVXLKKATAXILS] (H-APKVV[X1]LKKATA[ξαMeNle(6-ylidene)]ILS-OH; staple 6-13; N-terminus and C-terminus assumed) |  |  | 
> 100 µM | > 100 µM | RQIKIWFQNRRMKWKKNELKRAFAALRDQI [Int-HI-S6A-F8, reference compound] |  |  | 
